Source: the CheMixHub drug solubility set

Assay: xn = mol fraction of the nth substance listed, in the solute-free solvent

Cl.c1ccc2c(CC3=NCCN3)cccc2c1 + CO + CCO
solubility (g/100 g solution)
Settings | 278.15 K | 283.15 K | 288.15 K | 293.15 K | 298.15 K | 303.15 K | 308.15 K | 313.15 K | 318.15 K | 323.15 K
x2 = 0.1377 | 2.14 | 2.61 | 3.11 | 3.69 | 4.45 | 5.14 | 5.88 | 6.74 | 7.61 | 8.5
x2 = 0.2644 | 3.05 | 3.54 | 3.96 | 4.7 | 5.27 | 6.18 | 7.06 | 8.2 | 9.28 | 10.6
x2 = 0.3812 | 3.8 | 4.39 | 5.05 | 5.74 | 6.63 | 7.58 | 8.73 | 9.78 | 11.4 | 12.7
x2 = 0.4894 | 4.21 | 4.86 | 5.45 | 6.36 | 7.17 | 8 | 9.31 | 10.4 | 11.9 | 13.2
x2 = 0.5898 | 4.47 | 5.59 | 6.2 | 7.21 | 8.02 | 9.29 | 10.6 | 11.7 | 13.2 | 14.6
x2 = 0.6832 | 4.86 | 5.8 | 6.77 | 7.78 | 8.82 | 10 | 11.3 | 12.8 | 14.4 | 16.1
x2 = 0.7704 | 5.03 | 6.14 | 7.26 | 8.67 | 10.3 | 11.5 | 13.1 | 14.6 | 16.2 | 18.3
x2 = 0.8519 | 5.48 | 6.63 | 7.79 | 9.34 | 11 | 13.3 | 14.8 | 16.8 | 18.5 | 20.5
x2 = 0.9283 | 5.66 | 6.83 | 8.15 | 9.82 | 11.7 | 14 | 15.7 | 18 | 19.9 | 21.9

Cc1cc(Cl)cc(C(=O)O)c1N + CC(C)=O + CC#N
solubility (g/100 g solution)
Settings | 278.15 K | 283.15 K | 288.15 K | 293.15 K | 298.15 K | 303.15 K | 308.15 K | 313.15 K | 318.15 K | 323.15 K
x2 = 0.1114 | 1.03 | 1.1 | 1.25 | 1.42 | 1.6 | 1.82 | 2.12 | 2.5 | 2.98 | 3.61
x2 = 0.2335 | 1.51 | 1.63 | 1.87 | 2.13 | 2.41 | 2.74 | 3.2 | 3.76 | 4.46 | 5.3
x2 = 0.3677 | 1.98 | 2.16 | 2.48 | 2.84 | 3.21 | 3.65 | 4.26 | 5 | 5.89 | 6.95
x2 = 0.516 | 2.46 | 2.68 | 3.09 | 3.54 | 4 | 4.55 | 5.3 | 6.22 | 7.3 | 8.55
x2 = 0.6807 | 2.92 | 3.19 | 3.69 | 4.24 | 4.78 | 5.44 | 6.32 | 7.42 | 8.69 | 10.1
x2 = 0.8648 | 3.39 | 3.71 | 4.29 | 4.92 | 5.55 | 6.31 | 7.34 | 8.61 | 10.1 | 11.7
